For one assay, the system named is BT/Lap^R1.0. The assay is described as follows: Antitumor bioactivity evaluation, breast cancer cells (ATPlite). The format is cell-based, human. Conditions: Homo sapiens; test sample 5 μM, 72 hours; read-out: Inhibitory Rate % BT/Lap^R1.0. In short, it runs like this:
(§1)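 ATPlite luminescence read-out after 72 h exposure at 37 °C; cell survival expressed as % of solvent-matched control RLU. Compound tested at 5 μM final, with or without 1 μM lapatinib, on cells plated 24 h earlier at 5000 per well.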
For orientation: Cellular ATP, detected with luciferase, serves as a proxy for viable cell number.

For a further assay, the target named is T1, Hsp70 (Homo sapiens, UniProt P0DMV8).
T1 construct: purchased Enzo Life Sciences ADI-ESP-550-D
T1 sequence (P0DMV8 whole entry): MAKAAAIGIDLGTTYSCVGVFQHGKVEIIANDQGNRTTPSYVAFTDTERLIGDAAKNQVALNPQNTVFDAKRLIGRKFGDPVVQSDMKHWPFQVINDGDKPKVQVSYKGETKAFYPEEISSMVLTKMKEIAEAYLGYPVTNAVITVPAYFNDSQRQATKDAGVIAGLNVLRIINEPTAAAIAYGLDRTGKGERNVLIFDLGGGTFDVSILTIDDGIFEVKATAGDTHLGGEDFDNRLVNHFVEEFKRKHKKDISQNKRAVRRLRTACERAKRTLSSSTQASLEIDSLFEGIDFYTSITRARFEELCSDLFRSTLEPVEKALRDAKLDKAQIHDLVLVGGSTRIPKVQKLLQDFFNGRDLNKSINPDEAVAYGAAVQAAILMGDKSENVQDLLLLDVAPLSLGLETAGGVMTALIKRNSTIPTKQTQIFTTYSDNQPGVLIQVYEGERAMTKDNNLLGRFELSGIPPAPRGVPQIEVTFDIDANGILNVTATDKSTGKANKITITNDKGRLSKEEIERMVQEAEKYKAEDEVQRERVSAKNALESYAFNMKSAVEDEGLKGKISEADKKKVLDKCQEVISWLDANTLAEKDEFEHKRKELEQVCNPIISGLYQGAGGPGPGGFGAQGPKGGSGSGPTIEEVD
In words: Measurement of affinity between compounds and Hsp70 (SPR, BIACORE T100). The format is binding. The procedure: Instrument for measuring the affinity between Example compounds and Hsp70 is BIACORE T100 Biomolecular Interaction Analysis (GE, USA), and the positive control drug is VER-155008 that is well-recognized as Hsp70 inhibitor now, and, on the basis of the measured results, according to binding characteristics between the compounds and protein, the binding constant (equilibrium dissociation constant KD) between drugs and protein is calculated by selecting steady state model with the formula: Conc*Rmax/[conc+KD]+offset.
1. Instrument: BIACORE T100 Biomolecular Interaction Analysis (GE, USA)
2. Reagents: PBS Buffer (×10), P20, CM5 chip (GE, USA), Hsp70 (human, ADI-ESP-550-D), manufactured by Enzo Life Sciences.
30 mM mother liquor of the compound was formulated with DMSO, which was diluted to 2 mM application solution with DMSO before use. 5 μl of the application solution was taken and diluted with 95 μl 1.05×PBS to 100 μM, and then diluted in turn with PBS containing 5% DMSO to […]. PBS containing 5% DMSO was used as solvent control.
Hsp70 protein was diluted with 10 mmol/L sodium acetate buffer solution (pH 5.0) to 30 μg/ml, and coupled directly on a hydrophilic carboxylmethyl dextran matrix sensor chip M5 through normalized primary amine coupling reaction, RU=11209, and then the chip was balanced for 1-2 h with PBS Buffer at […].
At a flow rate of […], with PBS containing 5% DMSO as mobile phase, at 25° C., the compound was introduced in the sequence of 0.003, 0.01, 0.03, 0.1, 0.3, 1, 3 and 10 μM, with binding time of 90 seconds, and dissociation time of 120 seconds.
According to binding characteristics between the compounds and protein, the binding constant (equilibrium dissociation constant KD) between drugs and protein was calculated by selecting steady state model with the formula: Conc*Rmax/[conc+KD]+offset.
(In general: SPR reads the build-up and loss of mass on a sensor chip optically.)

For a further assay, the system named is MDA-MB-361. In words: Antitumor bioactivity evaluation, breast cancer cells (ATPlite). The format is cell-based. As to conditions: Homo sapiens, test sample 5 μM, 72 hours, read-out: Inhibitory Rate % MDA-MB-361. The essentials:
as §1

For another assay, the system named is BT474. The description is as above. The format is cell-based. Conditions: Homo sapiens, BT-474; test sample 5 μM, 72 hours; read-out: Inhibitory Rate % BT474. In short, it runs like this:
as §1

A further assay concerns SK-BR3. Described as above. The format is cell-based. Conditions: Homo sapiens, SK-BR-3; test sample 5 μM, 72 hours; read-out: Inhibitory Rate % SK-BR3. The essentials:
as §1

The subject of a further assay is SK/Lap^R1.0. The description is as above. It is filed as cell-based. As to conditions: Homo sapiens; test sample 5 μM, 72 hours; read-out: Inhibitory Rate % SKLap^R1.0. In short, it runs like this:
as §1

A further assay concerns MDA-MB-453. Described as above. It is filed as cell-based. As to conditions: Homo sapiens, test sample 5 μM, 72 hours, read-out: Inhibitory Rate % MDA-MB-453. The essentials: as §1

As for `COc1nccc(N2CCC(N(C)Cc3ccc(F)cc3)CC2)n1` [Example 57, N-methyl-N-(4-fluorobenzyl)-N-[1-(2-methoxypyrimidin-4-yl)piperidin-4-yl]amine], the inhibition at 5 µM in the assay with BT/Lap^R1.0 came out at 14.6%; with MDA-MB-361, 12.8%; with BT474 it was 12.5%; with SK-BR3 it was 14.4%; in the assay on SK/Lap^R1.0, 9%; with MDA-MB-453, 40.4%. In addition, at Hsp70, the “KD compared with positive control drug VER-155008” value was “KD values equivalent to that of the positive control drug VER-155008”. Besides, the Kd on Hsp70 (steady state model, 25° C., read-out: KD (binding constant between the compounds and Hsp70)) came out at 0.281 µM.

A word on the Kd: it is the concentration at which binding is half-saturated.
